“Also recorded” adds a separate entry of the source. Counter-ions that a name gives are not always drawn. Like-named read-outs stand apart in the source and are kept apart here.
Key:
[1] = Intrinsic dissolution in water at 25° C. (Woods apparatus pellets, UV at 302 nm); format: physicochemical; details: for intrinsic dissolution rate: 50 RPM, 900 mL, mean of three pellets, equivalent hydrochloride salt concentration, not normalized for surface area
Description: Intrinsic Dissolution: Pellets of approximately 200 mg were pressed at 3000 lbs. for 1 minute in a standard Woods apparatus, with a surface area of 0.5 cm^2. Three pellets were tested for each material, testing one material at a time. The samples were rotated in a VanKel dissolution apparatus, with automated sampling, at 50 RPM in 900 mL of water at 25° C. Aliquots were taken every two minutes and not filtered prior to analysis. Concentrations were determined through UV absorbance at approximately 302 nm, to avoid potential interference from benzoic acid. Equivalent hydrochloride salt concentrations were calculated from the Beer's Law plot generated from zotepine hydrochloride salt aqueous standards.
To determine the rate of dissolution of each material, a plot was generated of the absorbance over time for each vessel. From this plot, a linear region was chosen from the initial dissolution period of each material: starting at the first time point when the measured absorbance exceeded the minimum measured absorbance value in the Beer's Law relationship generated from zotepine hydrochloride salt aqueous standards. The end of the linear region was chosen as either 30 minutes after the first time point, or at the maximum recorded absorbance value that falls within the Beer's Law Relationship. Equivalent hydrochloride salt concentrations were plotted versus time for the regions. A straight-line was fit to the data for each vessel. The slope of these lines provides the dissolution rate for each of the materials, expressed as [μg/mL]/min. The mean of the three rates is the reported rate for each material, expressed as equivalent hydrochloride salt concentration, for direct comparison of the materials. The rates were not normalized for the surface area of the pellet.

[2] = Approximate aqueous solubility by portion-wise addition of solid to water, visual inspection
Description: An attempt was made to measure the aqueous solubility of zotepine hydrochloride. To a 1-dram vial was charged 99 mg of zotepine hydrochloride, and 1 mL of HPLC-grade water (obtained from Mallinckrodt) was added.
A 0.5-mL aliquot of the resulting zotepine hydrochloride aqueous solution was then charged to a second 2-dram vial, and 50 mg of zotepine hydrochloride (50 mg) was added. […] At this point, the procedure was discontinued.

[3] = Equilibrium solubility in water, ambient-temperature slurry, UV measurement; format: physicochemical; details: for equilibrium solubility in water / solid recovered from solubility experiment (XRPD analysis) / aqueous solubility (in words): ambient temperature; for equilibrium solubility in water: UV analysis of supernatant; for solid recovered from solubility experiment (XRPD analysis) / aqueous solubility (in words): water
Description: Equilibrium Solubility—UV Measurement: Equilibrium solubility was determined in water using ambient-temperature slurry experiments. Samples were prepared with excess solids and agitated on a wheel for at least 3 days. Remaining solids were separated from the mixture by centrifugation. The clear supernatant was pipeted to a separate container and the concentration determined through ultraviolet (UV) spectrophotometry, diluting the sample with additional water if necessary. […] Equivalent zotepine hydrochloride salt concentrations were calculated from the Beer's Law plot generated front zotepine hydrochloride salt aqueous standards and adjusted to account for the stoichiometry of the solids utilized. Retained solids were analyzed by X-ray powder diffraction, if sufficient solids were present. Concentrations of aqueous solutions of BNV-218 were determined through ultraviolet absorbance. Ultraviolet spectrophotometry: Solutions were analyzed using a Cary 50 dual-beam spectrophotometer. They were analyzed at ambient temperature in a 1.000-cm quartz cuvette. Scans at 600 nm/min in the range of 800-200 nm were performed to determine an optimal wavelength for concentration measurement. The cuvette was washed with methanol, followed by water, and the detector was then zeroed prior to analysis of each sample. Wavelength calibration was performed using holmium oxide. The photometric accuracy was verified by measuring the intensity of the light at the detector when filters of known optical density were placed in the path of the beam.

[4] = pharmaceutical formulations containing the zotepine free base; cited from earlier work
[5] = cited from earlier work
[6] = listed as crystalline zotepine hydrochloride, hydrochloride

## CN(C)CCOC1=Cc2ccccc2Sc2ccc(Cl)cc21.Cl.O=C(O)c1ccccc1 [1:1 zotepine hydrochloride benzoic acid cocrystal]
[1]
  dissolution rate in water (in words): intermediate between those of zotepine free base and zotepine hydrochloride
  solid recovered after dissolution experiment (XRPD analysis): the 1:1 zotepine hydrochloride benzoic acid cocrystal
  intrinsic dissolution rate: 0.3 [μg/mL]/min
[2]; water
  surface activity (suds on addition of solid to water, visual inspection): exhibited surface activity
[3]
  equilibrium solubility in water: ~44 mg/mL
  solid recovered from solubility experiment (XRPD analysis): 1:1 benzoic acid cocrystal
[3]; listed as 1:1 benzoic acid cocrystal
  equilibrium solubility in water: approximately 44 mg/mL

## CN(C)CCOC1=Cc2ccccc2Sc2ccc(Cl)cc21.CN(C)CCOC1=Cc2ccccc2Sc2ccc(Cl)cc21.Cl.Cl.O=C(O)c1ccccc1 [2:1 zotepine hydrochloride benzoic acid cocrystal]
[1]
  dissolution rate in water (in words): intermediate between those of the 1:1 zotepine hydrochloride benzoic acid cocrystal and zotepine hydrochloride
  solid recovered after dissolution experiment (XRPD analysis): converts to the 2:1 zotepine hydrochloride benzoic acid cocrystal
  intrinsic dissolution rate: 2.3 [μg/mL]/min
[2]; water, portion-wise addition of solid, ambient temperature
  approximate solubility / calculated aqueous concentration from amount of solid added: ≥ 56 mg/mL

## CN(C)CCOC1=Cc2ccccc2Sc2ccc(Cl)cc21 [zotepine free base, 2-[(8-chlorodibenzo[b,f]thiepin-10-yl)oxy]-N,N-dimethylethylamine, reference compound]
[4]
  bioavailability: 7-13%
[5]
  solubility in water as reported: relatively insoluble in water
[1]
  dissolution rate in water (in words): too low to be calculated; also recorded: negligible; also recorded: very close to zero
[1]; 302 nm, experiment ended at 2,880 minutes
  maximum UV absorbance in intrinsic dissolution experiment: 0.02
[2]
  approximate solubility / calculated aqueous concentration from amount of solid added: less than 4 mg/mL
[3]
  largest recorded UV absorbance at end of equilibrium solubility experiment: 0.02
  aqueous solubility (in words): negligible
  solid recovered from solubility experiment (XRPD analysis): zotepine free base

## CN(C)CCOC1=Cc2ccccc2Sc2ccc(Cl)cc21 [zotepine hydrochloride]
[1]; listed as zotepine hydrochloride salt, hydrochloride
  intrinsic dissolution rate: 3.9 [μg/mL]/min
[1]; [6]
  dissolution rate in water (in words): significantly higher
[2]
  surface activity (suds on addition of solid to water, visual inspection): high surface activity
[3]; [6]
  aqueous solubility (in words): significantly higher

Reference: patent US20110275695A1, “CRYSTALLINE FORMS OF ZOTEPINE HYDROCHLORIDE” (BIONEVIA PHARMACEUTICALS, INC., priority 2008, published 2011)
